Measurements from PMC9862186 (International Journal of Molecular Sciences, 2023).

Tests used:
[1] = system: PC12 cells; assay: MTT cell viability assay in neuronal differentiated PC12 cells; assay type: cell-based, rat; conditions: 2 h
Procedure: PC12 cell line (RRID:CVCL_0481), derived from rat adrenal gland pheochromocytoma, was a kind gift from Dr Federica Brugnoli from the Department of Translational Medicine, University of Ferrara, Ferrara (Italy). The cells were grown in RPMI-1640 (HiGlutaXL) medium (Microtech, Naples, Italy), supplemented with 100 µg/mL streptomycin and 100 IU/mL penicillin, 10% horse serum (HS), and 5% fetal bovine serum (FBS). PC12 cells were gently removed from the 4 µg/cm^2 collagen IV-coated flask with a rubber scraper, transferred as cell suspension into a Falcon tube and resuspended through a sterile tip to avoid any clumping, then split into separate flasks twice weekly. To differentiate neuronal phenotypes, PC12 cells were seeded in 4 µg/cm^2 collagen IV-coated 12-well plates at a density of 5000 cells/well, and they were then left to adhere to the well for 24 h. […] All the proliferative and differentiated cultures were maintained at 37 °C in a humidified 5% CO2 atmosphere.
The 100% of cell viability was stated as control in the absence of compound. Then, incubation buffer was withdrawn, and 0.2 mL per well of a solution of MTT 500 µg/mL was added to each well and kept for 2 h at 37 °C in a humidified atmosphere at 95% with 5% CO2. After the conversion of the substrate to a chromogenic product by metabolically active cells, the MTT solution was removed, and the purple MTT formazan crystals were solubilized with 0.1 mL/well of DMSO for 60 min at 37 °C. The absorbance of each sample was measured with a multiplate reader spectrophotometer (Sunrise® Microplate Reader, Tecan Trading AG, Männedorf, Switzerland) at 570 nm, using 690 nm as a reference wavelength. Cell viability, proportional to absorbance, was reported as ratio between the absorbance resulting from the treatments and absorbance resulting from the control, considered as 100% of viable cells. Data were plotted as graphs and analyzed using GraphPad software (Prism, version 7.0, San Diego, CA, USA).

[2] = in vivo
Procedure: (§1) A saline solution (0.9% NaCl) was added to a mixture of cinnamaldehyde (density = 1.05 g/mL) and Cremophor® RH 40 (1:1 v/v) in order to obtain a 12.5 mg/mL cinnamaldehyde emulsion in the presence of ethanol (10% of final volume). A group (n = 4) of male Wistar rats (200–250 g) fasted for 24 h was anesthetized during the experimental period and received 0.4 mL via a femoral intravenous infusion (rate = 0.2 mL/min; 2 min) of 12.5 mg/mL cinnamaldehyde emulsion (20 mg/kg cinnamaldehyde dose).
(§2) At the end of the infusions and at fixed time points, CSF samples (50 μL) were withdrawn and blood samples (100 μL) were collected. The CSF was withdrawn using the cisternal puncture method described by van den Berg et al., which requires a single needle stick and allows the collection of serials (40–50 μL) CSF samples that are virtually blood-free. A total volume of about a maximum of 150 μL of CSF/rat (i.e., three 50 μL samples/rat) was collected during the experimental session, choosing the time points (n = 3–5, taking into account a maximum of three collections per rat) in order to allow the restoring of the CSF physiological volume.
The samples were centrifuged at 12,500× g for 5 min, then about 300 μL of supernatant were withdrawn and further centrifuged. […] As a control, a blood sample (100 μL) was collected by each rat before the administrations of the drugs. The control samples were immediately added to 300 μL of ice-cold CH3CN in the absence of internal standard, then treated as described above.
For cinnamaldehyde analysis the blood samples were hemolyzed immediately after their collection with 500 μL of ice-cold water, and then 50 μL of 10% sulfosalicylic acid and 50 μL of internal standard (100 μM carbazole dissolved in a water-methanol mixture 50:50 v/v) was added. The samples were extracted twice with 1 mL of water-saturated ethyl acetate, and, after centrifugation at 12,500× g for 10 min, the organic layer was reduced to dryness under a mild nitrogen stream at room temperature. Then, 200 μL of a water-acetonitrile mixture (50:50 v/v) were added, and after centrifugation, 10 μL were analyzed via HPLC (see below) for cinnamaldehyde detection. As a control, a blood sample (100 μL) was collected by each rat before the administration of the drug. The control samples were treated as described above in the absence of internal standard.
In particular, all the AUC values referred to the bloodstream were calculated by the trapezoidal method within the last time point detected, and the remaining area was obtained as the ratio between the compound concentration detected at the last time point and the elimination constant (kel), which was obtained from the slope of the semilogarithmic plots (−slope × 2.3). The clearance (Cl) and distribution volume (Vd) values were calculated according to the non-compartmental model as the ratios “dose/AUC” and “Cl/kel”, respectively, where kel is the elimination constant obtained by the slope of semilogarithmic plot.
(§3) The chromatographic apparatus consisted of a modular system (model LC-10 AD VD pump and model SPD-10A VP variable wavelength UV−vis detector; Shimadzu, Kyoto, Japan) and an injection valve with 20 μL sample loop (model 7725; Rheodyne, IDEX, Torrance, CA, USA). Separations were performed at room temperature on a 5 μm Hypersil BDS C-18 column (150 mm × 4.6 mm i.d.; Alltech Italia Srl, Milan, Italy) equipped with a guard column packed with the same Hypersil material. The volume injection was 10 μL. Data acquisition and processing were performed on a personal computer using CLASS-VP Software, version 7.2.1 (Shimadzu Italia, Milan, Italy).
The detector was set at 205 nm.

[3] = in vivo; conditions: male, Wistar, rat, in vivo, iv
Procedure: as §1, §2, §3
For CSF simulation, standard aliquots of balanced solution (Dulbecco’s phosphate buffer saline—DPBS—without calcium and magnesium) in the presence of 0.45 mg/mL BSA were used.

[4] = male, Wistar, rat, in vivo, iv, 20 mg/kg

C=CCc1ccc(O)c(OC)c1 [Eugenol]
increase of cell viability over the untreated cell value ([1]; 25 µM, 37 °C, NGF-differentiated PC12): 2.5 times | effect on cell viability compared to untreated control ([1]; 2, 25, 50 and 100 µM, p < 0.0001, no toxic impact): statistically significant increase in cell viability | most effective concentration in increasing cell viability ([1]; tested 2, 25, 50 and 100 µM): 25 µM | Vd ([2]; male, Wistar, rat, in vivo, iv): 3.21 ± 0.247 L/kg | clearance ([2]; male, Wistar, rat, in vivo, iv): 114 ± 2 mL/min/kg | half-life ([2]; male, Wistar, rat, in vivo, iv): 19.4 ± 2.1 min | concentration at 5 min [2, 4]: 3600 ± 200 ng/mL | concentration at 10 min [2, 4]: 2900 ± 100 ng/mL | k el ([2]; male, Wistar, rat, in vivo, iv, kel: pseudo first order kinetic elimination rate constant, rat blood, iv 20 mg/kg (eugenol, cinnamaldehyde), 100 mg/kg (D-limonene), eugenol value terminal): 0.0006 s⁻¹ | C0: concentration in the bloodstream at the end of infusion ([2]; rat blood, iv infusion 2 min, 20 mg/kg eugenol and cinnamaldehyde, 100 mg/kg D-limonene, mean ± SE, n = 4): 16500 ± 200 ng/mL | Tmax: time of Cmax in CSF [3]: 10 min | AUC ([3]; 20 mg/kg): 935 ng·h/mL | Cmax ([3]; 20 mg/kg): 2790 ± 180 ng/mL | time within which CSF concentrations decreased to zero or near to zero ([3]; 20 mg/kg): ≤ 45 min | Kp at 10 min ([3]; R: ratio of concentration between CSF and bloodstream at Tmax): 0.96
